Experiments:
Test in all cases: fitness (endpoint OD595 vs no drug) (fraction); higher = more growth
B. subtilis 168 = test system: B. subtilis 168
Procedure, shortened: (§1)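 Volumes were 30 µl per well, or 55 µl for S. pneumoniae, in 384-well plates inoculated at OD595 0.01. Media were TSB, LB Lennox or CY at 37 °C, and OD595 was read every 30 min for 14 h with first-reading background subtraction. Fitness is the ratio of optical density at stationary-phase entry to the robust mean of no-drug controls. That ratio is capped at 1.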

S. aureus DSM 20231 = test system: S. aureus DSM 20231
Procedure, shortened: as §1

S. aureus Newman = test system: S. aureus Newman
Procedure, shortened: as §1

S. pneumoniae D39V = test system: S. pneumoniae D39V
Procedure, shortened: as §1

CCC[C@@H]1C[C@@H](C(=O)N[C@@H]([C@H]2O[C@H](SC)[C@H](O)[C@@H](O)[C@H]2O)[C@H](C)Cl)N(C)C1 [Clindamycin] + CO/N=C(\C(=O)N[C@@H]1C(=O)N2C(C(=O)O)=C(COC(C)=O)CS[C@H]12)c1csc(N)n1 [Cefotaxime]
one replicate
Settings | fitness
B. subtilis 168, first compound 0.0039 µg/mL, partner 0.0625 µg/mL | 0.681
B. subtilis 168, first compound 0.0039 µg/mL, partner 0.125 µg/mL | 0.531
B. subtilis 168, first compound 0.0039 µg/mL, partner 0.25 µg/mL | 0.442
B. subtilis 168, first compound 0.0078 µg/mL, partner 0.0625 µg/mL | 0.62
B. subtilis 168, first compound 0.0078 µg/mL, partner 0.125 µg/mL | 0.482
B. subtilis 168, first compound 0.0078 µg/mL, partner 0.25 µg/mL | 0.389
B. subtilis 168, first compound 0.0156 µg/mL, partner 0.0625 µg/mL | 0.485
B. subtilis 168, first compound 0.0156 µg/mL, partner 0.125 µg/mL | 0.406
B. subtilis 168, first compound 0.0156 µg/mL, partner 0.25 µg/mL | 0.314
B. subtilis 168, first compound 0.0625 µg/mL, partner 0.00775 µg/mL | 0.473
B. subtilis 168, first compound 0.0625 µg/mL, partner 0.0155 µg/mL | 0.389
B. subtilis 168, first compound 0.0625 µg/mL, partner 0.031 µg/mL | 0.343
B. subtilis 168, first compound 0.125 µg/mL, partner 0.00775 µg/mL | 0.339
B. subtilis 168, first compound 0.125 µg/mL, partner 0.0155 µg/mL | 0.304
B. subtilis 168, first compound 0.125 µg/mL, partner 0.031 µg/mL | 0.3
B. subtilis 168, first compound 0.25 µg/mL, partner 0.00775 µg/mL | 0.33
B. subtilis 168, first compound 0.25 µg/mL, partner 0.0155 µg/mL | 0.254
B. subtilis 168, first compound 0.25 µg/mL, partner 0.031 µg/mL | 0.111
S. aureus Newman, first compound 0.0312 µg/mL, partner 0.039 µg/mL | 0.525
S. aureus Newman, first compound 0.0312 µg/mL, partner 0.312 µg/mL | 0.128
S. aureus Newman, first compound 0.0625 µg/mL, partner 0.039 µg/mL | 0.161
S. aureus Newman, first compound 0.0625 µg/mL, partner 0.312 µg/mL | 0.0773
S. aureus Newman, first compound 0.125 µg/mL, partner 0.039 µg/mL | 0.0501
S. aureus Newman, first compound 0.125 µg/mL, partner 0.312 µg/mL | 0.113

Settings | fitness
B. subtilis 168, first compound 0.0625 µg/mL, partner 0.5 µg/mL | 0.138
B. subtilis 168, first compound 0.0625 µg/mL, partner 1 µg/mL | 0.0488
B. subtilis 168, first compound 0.0625 µg/mL, partner 2 µg/mL | 0.0865
B. subtilis 168, first compound 0.125 µg/mL, partner 0.5 µg/mL | 0.096
B. subtilis 168, first compound 0.125 µg/mL, partner 1 µg/mL | 0.0462
B. subtilis 168, first compound 0.125 µg/mL, partner 2 µg/mL | 0.0669
B. subtilis 168, first compound 0.25 µg/mL, partner 0.5 µg/mL | 0.0789
B. subtilis 168, first compound 0.25 µg/mL, partner 1 µg/mL | 0.0542
B. subtilis 168, first compound 0.25 µg/mL, partner 2 µg/mL | 0.0739
S. aureus DSM 20231, first compound 0.0625 µg/mL, partner 0.312 µg/mL | 0.11
S. aureus DSM 20231, first compound 0.125 µg/mL, partner 0.039 µg/mL | 0.0991
S. aureus DSM 20231, first compound 0.125 µg/mL, partner 0.078 µg/mL | 0.0447
S. aureus DSM 20231, first compound 0.125 µg/mL, partner 0.156 µg/mL | 0.0526
S. aureus DSM 20231, first compound 0.125 µg/mL, partner 0.312 µg/mL | 0.0465
S. aureus Newman, first compound 0.0312 µg/mL, partner 0.078 µg/mL | 0.437
S. aureus Newman, first compound 0.0312 µg/mL, partner 0.156 µg/mL | 0.351
S. aureus Newman, first compound 0.0312 µg/mL, partner 0.625 µg/mL | 0.055
S. aureus Newman, first compound 0.0312 µg/mL, partner 1.25 µg/mL | 0.036
S. aureus Newman, first compound 0.0312 µg/mL, partner 2.5 µg/mL | 0.0433
S. aureus Newman, first compound 0.0625 µg/mL, partner 0.078 µg/mL | 0.223
S. aureus Newman, first compound 0.0625 µg/mL, partner 0.156 µg/mL | 0.114
S. aureus Newman, first compound 0.0625 µg/mL, partner 0.625 µg/mL | 0.0368
S. aureus Newman, first compound 0.0625 µg/mL, partner 1.25 µg/mL | 0.0614
S. aureus Newman, first compound 0.0625 µg/mL, partner 2.5 µg/mL | 0.0509
S. aureus Newman, first compound 0.125 µg/mL, partner 0.078 µg/mL | 0.0724
S. aureus Newman, first compound 0.125 µg/mL, partner 0.156 µg/mL | 0.0344
S. aureus Newman, first compound 0.125 µg/mL, partner 0.625 µg/mL | 0.0721
S. aureus Newman, first compound 0.125 µg/mL, partner 1.25 µg/mL | 0.0661
S. aureus Newman, first compound 0.125 µg/mL, partner 2.5 µg/mL | 0.0579
S. pneumoniae D39V, first compound 0.0125 µg/mL, partner 0.0018 µg/mL | 0.792
S. pneumoniae D39V, first compound 0.0125 µg/mL, partner 0.0035 µg/mL | 0.812
S. pneumoniae D39V, first compound 0.0125 µg/mL, partner 0.007 µg/mL | 0.763
S. pneumoniae D39V, first compound 0.015 µg/mL, partner 0.0018 µg/mL | 0.889
S. pneumoniae D39V, first compound 0.015 µg/mL, partner 0.0035 µg/mL | 0.908
S. pneumoniae D39V, first compound 0.015 µg/mL, partner 0.007 µg/mL | 0.803
S. pneumoniae D39V, first compound 0.025 µg/mL, partner 0.0018 µg/mL | 0.573
S. pneumoniae D39V, first compound 0.025 µg/mL, partner 0.0035 µg/mL | 0.549
S. pneumoniae D39V, first compound 0.025 µg/mL, partner 0.007 µg/mL | 0.503
S. pneumoniae D39V, first compound 0.03 µg/mL, partner 0.0018 µg/mL | 0.709
S. pneumoniae D39V, first compound 0.03 µg/mL, partner 0.0035 µg/mL | 0.666
S. pneumoniae D39V, first compound 0.03 µg/mL, partner 0.007 µg/mL | 0.569
S. pneumoniae D39V, first compound 0.05 µg/mL, partner 0.0018 µg/mL | 0.256
S. pneumoniae D39V, first compound 0.05 µg/mL, partner 0.0035 µg/mL | 0.253
S. pneumoniae D39V, first compound 0.05 µg/mL, partner 0.007 µg/mL | 0.184
S. pneumoniae D39V, first compound 0.06 µg/mL, partner 0.0018 µg/mL | 0.374
S. pneumoniae D39V, first compound 0.06 µg/mL, partner 0.0035 µg/mL | 0.354
S. pneumoniae D39V, first compound 0.06 µg/mL, partner 0.007 µg/mL | 0.288

Source: the supplement of paper PMC10627819
